Drawing on PMC10257182, “Discovery of senolytics using machine learning” (Nature Communications, 2023), this text covers viability and IC50 for one molecule.

Where two headings read alike, the source gives them in different places.

This assay deals with non-senescent control IMR90 ER:RAS cells. The assay can be described thus: Nuclei count (Hoechst, high content imaging) senolytic assay, OIS model, non-senescent control cells. The settings on record: Homo sapiens. The assay is classed as cell-based, human. The source says:
To test for senolytic activity, we compared the effect of each compound on the total cell number (automated high content image-based analysis of total number of nuclei per well) in non-senescent and senescent IMR90 ER:RAS cultures treated with the top hits from the computational screen (Figs. 2e and 3a–d and Supplementary Fig. 4a–c). The drop in cell number compared to untreated controls is indicated by the nuclei count and reflects cell death[13],[15]. As positive control, we employed ouabain, a cardiac glycoside with well characterised senolytic activity.
We performed experimental validation of the compounds with z-score > 8 (Fig. 2e). […] We employed two cellular models of senescence: one of OIS and a second one of TIS. For the OIS case, we utilised IMR90 ER:RAS cells with 4-OHT at 100 nM. […] For the TIS model, we used A549 cells with etoposide at 100 μM. The exposure of the cells to etoposide lasted 48 h, after which period the cells were cultivated for a further three days with normal media.
IMR90 (CCL-186) human foetal lung fibroblasts and A549 (CCL-185) human lung adenocarcinoma cells were obtained from the American Type Culture Collection (ATCC, Manassas, VA). The cell lines were confirmed to be mycoplasma negative (Lonza MycoAlert, cat #LT07-118). IMR90 ER:RAS is a derivative of IMR90 cells expressing a switchable version of oncogenic H-Ras[84]. IMR90 ER:RAS and A549 cells were maintained in Dulbecco’s Modified Eagle Medium (DMEM, ThermoFisher) supplemented with foetal bovine serum (10%), L-glutamine (2 mM, ThermoFisher), and antibiotic-antimycotic solution (1%, ThermoFisher) and incubated under standard tissue culture conditions (37 °C and 5% CO2). For induction of the senescent phenotype, IMR90-ER:RAS cells were cultured in hydroxytamoxifen (4-OHT) (Sigma) added media at 100 nM final concentration. IMR90 were kept in culture for over 27 passages for replicative senescence. Cells were tested for mycoplasma on a regular basis.
Cells were seeded (50 μL per well) into 384-well plates (IMR90 ER:RAS cells in Nunc Optical Bottom Polybase Microplates [#142761, Thermo Scientific, Rochester, NY] and A549 cells in CELLSTAR Cell Culture Microplates [#781091, Greiner Bio-One, Kremsmünster, Austria]). Cells were incubated under standard tissue culture conditions for 24 h before the addition of compounds. Passage 14 IMR90 ER:RAS cells were seeded at 1300 cells per well in the control condition, and at 1600 cells per well in the senescent case. Passage 34 A549 cells were seeded at 7000 cells per well in the control condition, and at 10,000 cells per well in the senescent case.
Dose response plates were prepared with a DMSO control and a 10-point […] concentration range, and added to the compounds using a D300e digital dispenser (Tecan Trading AG, Switzerland) at a final concentration of between 10 μM and 10 nM. Every screened condition was carried out in triplicate. After 72 h of incubation with exposure to the compounds, cells were fixed by the addition of an equal volume of formaldehyde (8%, 50 μL; #BP531-500, Fisher Bioreagents, Fisher Scientific, Loughborough, Leicestershire) to the existing media, incubated at room temperature (30 min), and washed three times in phosphate-buffered saline (PBS). Cells were then permeabilised in Triton-X100 (0.1%, 50 μL) and incubated at room temperature (30 min) followed by three more washes with PBS.
Cells were stained with Hoechst 33342 for nuclei count (excitation/emission wavelength at 387/447 […], DAPI channel, original concentration at 10 mg/ml, final concentration at 2 μg/ml; H1399, Molecular Probes, Eugene, OR). The staining solution was prepared in bovine serum albumin solution (10%). The staining solution was added to each well (30 μL) and incubated in the dark at room temperature (30 min), followed by three washes with PBS and no final aspiration. Plates were foil sealed.

Broadly, the IC50 is the concentration needed to halve the response being measured. Turning to `C[C@@H]1O[C@@H](O[C@H]2C[C@@H](O)[C@]3(CO)[C@H]4[C@H](O)C[C@]5(C)[C@@H](C6=CC(=O)OC6)CC[C@]5(O)[C@@H]4CC[C@]3(O)C2)[C@H](O)[C@H](O)[C@H]1O` [Ouabain, ouabain, reference compound], the viability at 10 µM reads like this: (IMR-90, 72 h, Control, log (dose) [M] -5, 72 h, mean n=3 (Fig 3C), read-out: Mean % Cell Survival) 15.9%; (IMR-90, control cells, log (dose) [M] -5, read-out: % Cell Survival) 10.9%. Besides, the viability at 4.677 µM is, setting by setting: (IMR-90, 72 h, Control, log (dose) [M] -5.33, 72 h, mean n=3 (Fig 3C), read-out: Mean % Cell Survival) 22.3%; (IMR-90, control cells, log (dose) [M] -5.33, read-out: % Cell Survival) 23.1%. The viability at 2.188 µM reads like this: (IMR-90, 72 h, Control, log (dose) [M] -5.66, 72 h, mean n=3 (Fig 3C), read-out: Mean % Cell Survival) 23.9%; (IMR-90, control cells, log (dose) [M] -5.66, read-out: % Cell Survival) 27%. Moreover, the viability at 1 µM runs as follows: (IMR-90, 72 h, Control, log (dose) [M] -6, 72 h, mean n=3 (Fig 3C), read-out: Mean % Cell Survival) 27%; (IMR-90, control cells, log (dose) [M] -6, read-out: % Cell Survival) 27.3%. In addition, the viability at 0.4677 µM came to 29.6% (IMR-90, 72 h, Control, log (dose) [M] -6.33, 72 h, mean n=3 (Fig 3C), read-out: Mean % Cell Survival) and 29.4% (IMR-90, control cells, log (dose) [M] -6.33, read-out: % Cell Survival). For the same molecule, the viability at 0.2188 µM (IMR-90, 72 h, Control, log (dose) [M] -6.66, 72 h, mean n=3 (Fig 3C), read-out: Mean % Cell Survival) came to 46.7% and the viability at 0.2188 µM (IMR-90, control cells, log (dose) [M] -6.66, read-out: % Cell Survival) stood at 46%. For the same molecule, the viability at 0.1 µM by setting is: (IMR-90, 72 h, Control, log (dose) [M] -7, 72 h, mean n=3 (Fig 3C), read-out: Mean % Cell Survival) 60.8%; (IMR-90, control cells, log (dose) [M] -7, read-out: % Cell Survival) 62.2%. The viability at 0.04677 µM (IMR-90, 72 h, Control, log (dose) [M] -7.33, 72 h, mean n=3 (Fig 3C), read-out: Mean % Cell Survival) turned out to be 78.1% and the viability at 0.04677 µM (IMR-90, control cells, log (dose) [M] -7.33, read-out: % Cell Survival) worked out at 81.7%. Besides, the viability at 0.02188 µM is 87.3% (IMR-90, 72 h, Control, log (dose) [M] -7.66, 72 h, mean n=3 (Fig 3C), read-out: Mean % Cell Survival) and 81.6% (IMR-90, control cells, log (dose) [M] -7.66, read-out: % Cell Survival). Besides, the viability at 0.01 µM runs as follows: (IMR-90, 72 h, Control, log (dose) [M] -8, 72 h, mean n=3 (Fig 3C), read-out: Mean % Cell Survival) 88.3%; (IMR-90, control cells, log (dose) [M] -8, read-out: % Cell Survival) 86%. Besides, where the note is “IMR-90, Control, 46.4 nM, normalised to DMSO, individual experiments (Fig 3B), read-out: % Cell Survival”, the viability at 0.0464 µM stood at 78.1%. In addition, it took 231 nM to reach half-maximal inhibition (IMR-90, OIS model, non-senescent IMR90 ER:RAS, nuclei count, 72 h) (IC50).
